Experimental findings from US20200131669A1, “CYCLIC PEPTIDE COMPOUND HAVING HIGH MEMBRANE PERMEABILITY, AND LIBRARY CONTAINING SAME” (Chugai Seiyaku Kabushiki Kaisha, priority 2017, published 2020) are described below.

Starred links: 1 amine or outer side, 2 acyl side, 3 side chain; linkers in the order of their positions; H or OH if unused. Positions of bridges follow the written chain, without caps; N, C: chain ends. Non-standard residues stand in square brackets, D forms with d. Residues, ends and D or L forms follow the SMILES beside them. *: point of attachment. X18 = CC(C(=O)[C@H](COC(C)(C)C)N[*:1])[C@@H](Cc1ccccc1)C(=O)[*:2]; X19 = CC(C)[C@@H](C(=O)C[C@H](C(=O)[*:2])[C@@H](C)O)N(C)[*:1]; X16 = O=C(C1CCCCC1)[C@H](CC(=O)[*:2])N[*:1]; NMeF = CN[C@@H](Cc1ccccc1)C(=O)O; NMeGABA = CN(CCCC(=O)[*:2])[*:1]; NMeD = CN[C@@H](CC(=O)O)C(=O)O; NMeL = CN[C@@H](CC(C)C)C(=O)O; NMeV = CN[C@H](C(=O)O)C(C)C; NMeA = CN[C@@H](C)C(=O)O; Piperidide = C1CCN(*)CC1; Sar = CNCC(=O)O; tBu = CC(C)(C)*

One data set is described as follows: Caco-2 membrane permeability, improved method as used in the following Examples (96-well, 20 to 24 h preincubation). The following applies: human, Caco-2, Caco-2 (cm/sec). The class given is in vitro ADME. Summed up: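 Papp (cm/sec) was derived from LC/MS of basal samples collected 180 min after apical dosing in FaSSIF/HBSS pH 6.0 with 1% DMSO, against a basal HBSS pH 7.4 receiver containing 4% BSA. Three-week Caco-2 cultures were first preincubated with compound in DMEM+FaSSIF at 37 °C for 20–24 h.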
On the technique in general: Caco-2 monolayers are a common model of the intestinal barrier.
`CC(C)C[C@@H]1NC(=O)[C@H](C)N(C)C(=O)C[C@@H](C(=O)N2CCCCC2)NC(=O)[C@H](CC(C)C)N(C)C(=O)CN(C)C(=O)[C@H]([C@@H](C)O)NC(=O)[C@H](Cc2ccccc2)N(C)C(=O)[C@H](Cc2ccccc2)N(C)C(=O)[C@H](CC(C)C)NC(=O)[C@H](Cc2ccccc2)N(C)C(=O)[C@H](CC(C)C)N(C)C1=O` [pd204] ([NMeA]L[NMeL][NMeF]L[NMeF][NMeF]T[Sar][NMeL]D-Piperidide; lactam N-11) yielded a Papp A→B at 180 min of 2 ×10⁻⁶ cm/s.
In the case of `CC[C@H](C)[C@@H]1NC(=O)[C@H](Cc2ccccc2)N(C)C(=O)CN(C)C(=O)C[C@@H](C(=O)N2CCCCC2)NC(=O)[C@H](C(C)C)N(C)C(=O)[C@H](COC(C)(C)C)NC(=O)[C@H](CC(C)C)N(C)C(=O)[C@H](Cc2ccccc2)N(C)C(=O)CN(C)C(=O)[C@H]([C@@H](C)O)NC(=O)[C@H](Cc2ccccc2)N(C)C1=O` [pd205] ([Sar][NMeF]I[NMeF]T[Sar][NMeF][NMeL]S(tBu)[NMeV]D-Piperidide; lactam N-11), the Papp A→B at 180 min was found to be 1.8 ×10⁻⁶ cm/s.
On the same count and under the same terms, with `CC(C)C[C@@H]1NC(=O)[C@H](Cc2ccccc2)N(C)C(=O)[C@H]2CCCN2C(=O)C[C@@H](C(=O)N2CCCCC2)NC(=O)[C@H](Cc2ccccc2)N(C)C(=O)[C@H](Cc2ccccc2)N(C)C(=O)[C@H](COC(C)(C)C)NC(=O)[C@H](CC(C)C)N(C)C(=O)CN(C)C(=O)[C@H]([C@@H](C)O)NC(=O)[C@H](CC(C)C)N(C)C1=O` [pd206] ([dP][NMeF]L[NMeL]T[Sar][NMeL]S(tBu)[NMeF][NMeF]D-Piperidide; lactam N-11) the figure was 1.8 ×10⁻⁶ cm/s.
The same measure, in the same setting: with `CC(C)C[C@@H]1NC(=O)[C@H](Cc2ccccc2)N(C)C(=O)[C@H](COC(C)(C)C)NC(=O)[C@H](Cc2ccccc2)N(C)C(=O)[C@H](C)N(C)C(=O)[C@H](CC(C)C)N(C)C(=O)[C@@H](C)NC(=O)C[C@@H](C(=O)N2CCCCC2)N(C)C(=O)[C@H](Cc2ccccc2)N(C)C(=O)[C@H]([C@@H](C)O)NC(=O)[C@H](C(C)C)N(C)C1=O` [pd208] ([dA][NMeL][NMeA][NMeF]S(tBu)[NMeF]L[NMeV]T[NMeF][NMeD]-Piperidide; lactam N-11) the figure was 1.7 ×10⁻⁶ cm/s.
Same read-out and setting: to `CC(C)C[C@@H]1NC(=O)[C@H](Cc2ccccc2)N(C)C(=O)[C@H](C)NC(=O)C[C@@H](C(=O)N2CCCCC2)N(C)C(=O)[C@H](Cc2ccccc2)N(C)C(=O)[C@H](Cc2ccccc2)N(C)C(=O)[C@H](COC(C)(C)C)NC(=O)[C@H](CC(C)C)N(C)C(=O)CN(C)C(=O)[C@H]([C@@H](C)O)NC(=O)[C@H](CC(C)C)N(C)C1=O` [pd209] (A[NMeF]L[NMeL]T[Sar][NMeL]S(tBu)[NMeF][NMeF][NMeD]-Piperidide; lactam N-11) belongs 1.7 ×10⁻⁶ cm/s.
The compound `CC(C)C[C@H]1C(=O)N[C@@H](COC(C)(C)C)C(=O)N(C)[C@@H](Cc2ccccc2)C(=O)N(C)[C@@H](CC(C)C)C(=O)N[C@H](C(=O)N2CCCCC2)CC(=O)N[C@H](C(C)C)C(=O)N(C)[C@@H](Cc2ccccc2)C(=O)N[C@@H](C(C)C)C(=O)N(C)[C@@H](Cc2ccccc2)C(=O)N[C@@H]([C@@H](C)O)C(=O)N(C)CC(=O)N1C` [pd210] ([dV][NMeF]V[NMeF]T[Sar][NMeL]S(tBu)[NMeF][NMeL]D-Piperidide; lactam N-11) gave a Papp A→B at 180 min of 1.6 ×10⁻⁶ cm/s.
On the same count and under the same terms, to `CC(C)C[C@@H]1NC(=O)[C@H](CC(C)C)N(C)C(=O)[C@H](C)N(C)C(=O)C[C@@H](C(=O)N2CCCCC2)NC(=O)[C@H](CC(C)C)N(C)C(=O)[C@H](Cc2ccccc2)N(C)C(=O)[C@H](Cc2ccccc2)N(C)C(=O)[C@H]([C@@H](C)O)NC(=O)[C@H](Cc2ccccc2)N(C)C1=O` [pd211] ([NMeA][NMeL]L[NMeF]T[NMeF][NMeF][NMeL]D-Piperidide; lactam N-9) belongs 1.4 ×10⁻⁶ cm/s; to `CC(C)C[C@H]1C(=O)N[C@H](C(=O)N(C)[C@@H](Cc2ccccc2)C(=O)N[C@@H](C)C(=O)N2CCCCC2)CC(=O)N(C)[C@@H](C)C(=O)N[C@@H]([C@@H](C)O)C(=O)N(C)[C@@H](C)C(=O)N(C)[C@@H](CC(C)C)C(=O)N[C@@H](C(C)C)C(=O)N(C)[C@@H](Cc2ccccc2)C(=O)N[C@@H](Cc2ccccc2)C(=O)N1C` [pd212] ([NMeA]T[NMeA][NMeL]V[NMeF]F[NMeL]D[NMeF]A-Piperidide; lactam N-9), 1.4 ×10⁻⁶ cm/s.
The same measure, in the same setting: to `CC(C)C[C@@H]1NC(=O)[C@H](Cc2ccccc2)N(C)C(=O)[C@H](COC(C)(C)C)NC(=O)[C@H](Cc2ccccc2)N(C)C(=O)[C@H](C)N(C)C(=O)[C@H](CC(C)C)N(C)C(=O)[C@H](C)N(C)C(=O)C[C@@H](C(=O)N2CCCCC2)N(C)C(=O)[C@H](Cc2ccccc2)N(C)C(=O)[C@H]([C@@H](C)O)CC(=O)[C@H](C(C)C)N(C)C1=O` [pd213] ([NMeA][NMeL][NMeA][NMeF]S(tBu)[NMeF]L[X19][NMeF][NMeD]-Piperidide; lactam N-10) belongs 1.3 ×10⁻⁶ cm/s; to `CC(C)C[C@@H]1NC(=O)[C@H](Cc2ccccc2)N(C)C(=O)[C@H](COC(C)(C)C)NC(=O)[C@H](Cc2ccccc2)N(C)C(=O)[C@H](C)N(C)C(=O)[C@H](CC(C)C)N(C)C(=O)[C@@H]2CCCN2C(=O)N[C@@H](C(=O)N2CCCCC2)NC(=O)[C@H](Cc2ccccc2)N(C)C(=O)[C@H]([C@@H](C)O)NC(=O)[C@H](CC(C)C)N(C)C1=O` [pd214], 1.2 ×10⁻⁶ cm/s; to `CC(C)C[C@@H]1NC(=O)[C@H](Cc2ccccc2)N(C)C(=O)[C@@H](C(C)C)NC(=O)C[C@@H](C(=O)N2CCCCC2)NC(=O)[C@H](Cc2ccccc2)N(C)C(=O)[C@H](Cc2ccccc2)N(C)C(=O)[C@H](COC(C)(C)C)NC(=O)[C@H](CC(C)C)N(C)C(=O)CN(C)C(=O)[C@H]([C@@H](C)O)NC(=O)[C@H](CC(C)C)N(C)C1=O` [pd215] ([dV][NMeF]L[NMeL]T[Sar][NMeL]S(tBu)[NMeF][NMeF]D-Piperidide; lactam N-11), 1.2 ×10⁻⁶ cm/s.
Same read-out and setting: to `CC(C)C[C@H]1C(=O)N[C@@H](C(C)C)C(=O)N(C)[C@@H](Cc2ccccc2)C(=O)N(C)[C@@H](Cc2ccccc2)C(=O)N[C@@H](COC(C)(C)C)C(=O)N(C)[C@@H](CC(C)C)C(=O)N[C@@H]([C@@H](C)O)C(=O)N(C)[C@@H](Cc2ccccc2)C(=O)N(C)[C@@H](CC(C)C)C(=O)N[C@H](C(=O)C2CCCCC2)CC(=O)N(C)CCCC(=O)N1C` [pd216] (cyclo([NMeF][NMeF]S(tBu)[NMeL]T[NMeF][NMeL][X16][NMeGABA][NMeL]V)) belongs 1.2 ×10⁻⁶ cm/s; to `CC(C)C[C@@H]1NC(=O)[C@H](Cc2ccccc2)N(C)C(=O)[C@H](C)NC(=O)C[C@@H](C(=O)N2CCCCC2)NC(=O)[C@H](Cc2ccccc2)N(C)C(=O)[C@H](Cc2ccccc2)N(C)C(=O)[C@H](COC(C)(C)C)NC(=O)[C@H](CC(C)C)N(C)C(=O)CN(C)C(=O)[C@H]([C@@H](C)O)NC(=O)[C@H](CC(C)C)N(C)C1=O` [pd217] (A[NMeF]L[NMeL]T[Sar][NMeL]S(tBu)[NMeF][NMeF]D-Piperidide; lactam N-11), 1.1 ×10⁻⁶ cm/s; to `CC(C)C[C@@H]1NC(=O)[C@H](CC(C)C)N(C)C(=O)[C@H](C)N(C)C(=O)C[C@@H](C(=O)N(C)[C@@H](Cc2ccccc2)C(=O)N[C@@H](C)C(=O)N2CCCCC2)NC(=O)[C@H]([C@@H](C)O)NC(=O)[C@H](CC(C)C)N(C)C(=O)[C@H](Cc2ccccc2)NC(=O)[C@H](Cc2ccccc2)N(C)C(=O)[C@H](CC(C)C)N(C)C1=O` [pd218] ([NMeA][NMeL]L[NMeL][NMeF]F[NMeL]TD[NMeF]A-Piperidide; lactam N-9), 1.1 ×10⁻⁶ cm/s.
Regarding `CC(C)C[C@@H]1NC(=O)[C@H](Cc2ccccc2)C(C)C(=O)[C@H](COC(C)(C)C)NC(=O)[C@H](Cc2ccccc2)N(C)C(=O)[C@H](C)N(C)C(=O)[C@H](CC(C)C)N(C)C(=O)[C@H]2CCCN2C(=O)C[C@@H](C(=O)N2CCCCC2)N(C)C(=O)[C@H](Cc2ccccc2)N(C)C(=O)[C@H]([C@@H](C)O)NC(=O)[C@H](C(C)C)N(C)C1=O` (stereo partly drawn) [pd219] ([dP][NMeL][NMeA][NMeF][X18]L[NMeV]T[NMeF][NMeD]-Piperidide; lactam N-10), the Papp A→B at 180 min was determined as 1.1 ×10⁻⁶ cm/s.
The same measure, in the same setting: to `CC(C)C[C@@H]1NC(=O)[C@H](Cc2ccccc2)N(C)C(=O)[C@H](COC(C)(C)C)NC(=O)[C@H](Cc2ccccc2)N(C)C(=O)[C@H](C)N(C)C(=O)[C@H](CC(C)C)N(C)C(=O)[C@@H](C)NC(=O)C[C@@H](C(=O)N2CCCCC2)NC(=O)[C@H](Cc2ccccc2)N(C)C(=O)[C@H]([C@@H](C)O)NC(=O)[C@H](CC(C)C)N(C)C1=O` [pd220] ([dA][NMeL][NMeA][NMeF]S(tBu)[NMeF]L[NMeL]T[NMeF]D-Piperidide; lactam N-11) belongs 1.1 ×10⁻⁶ cm/s.
Still for that read-out and setting: with `CC(C)C[C@@H]1NC(=O)[C@H](Cc2ccccc2)N(C)C(=O)[C@@H](C(C)C)NC(=O)C[C@@H](C(=O)N2CCCCC2)NC(=O)[C@H](Cc2ccccc2)N(C)C(=O)[C@H](Cc2ccccc2)N(C)C(=O)[C@H](C(C)C)NC(=O)[C@H](CC(C)C)N(C)C(=O)CN(C)C(=O)[C@H]([C@@H](C)O)NC(=O)[C@H](CC(C)C)N(C)C1=O` [pd221] ([dV][NMeF]L[NMeL]T[Sar][NMeL]V[NMeF][NMeF]D-Piperidide; lactam N-11) the figure was 1.1 ×10⁻⁶ cm/s.

The same data set, now with this note: human, Caco-2; read-out: Caco-2.
`CC[C@H](C)[C@@H]1NC(=O)[C@H](C)N(C)C(=O)C[C@@H](C(=O)N(C)[C@@H](Cc2ccccc2)C(=O)N[C@@H](C)C(=O)N2CCCCC2)NC(=O)[C@H](Cc2ccccc2)N(C)C(=O)CN(C)C(=O)[C@H]([C@@H](C)O)NC(=O)[C@H](C)N(C)C(=O)[C@H](C(C)C)N(C)C(=O)[C@H](Cc2ccccc2)NC(=O)[C@H](CC(C)C)N(C)C(=O)[C@H](CC(C)C)N(C)C1=O` [pd222] ([NMeA]I[NMeL][NMeL]F[NMeV][NMeA]T[Sar][NMeF]D[NMeF]A-Piperidide; lactam N-11): the Papp A→B at 180 min is 1.1 ×10⁻⁶ cm/s.
